Values joined by “and” are separate entries in the source; they are usually repeats but may differ in a detail not shown here. Equal entries are not always repeated. Where two headings read alike, the source gives them in different places.
Key:
[1] = test system: C57BL/6 mice; experiment: Bleomycin-induced lung fibrosis model; assay type: in vivo, mouse; settings: individual animals; for Lung function (Penh) / Masson Trichrome's staining / Modified Ashcroft Score / collagen I / α-SMA: Fig 3B-C
Procedure: Mice received bleomycin on day 1 at a dose of 0.66 mg per kg (equivalent to 1 U per kg), in a volume of 50 μl by intratracheal administration, or received saline (sham group). On day 7, dosing with the corresponding compounds was started. The vehicle group (group 1) was treated with 0.5% methylcellulose BID. […] On days 5 and 21, lung function measurement was performed. On day 28, all animals were killed, and blood and tissue samples were collected along with BALF.
Lung function was measured according to the HDB standard protocol. Expiratory time, relaxation time, peak expiratory flow and peak inspiratory flow were collected and used to calculate Penh data.
Mice were first anesthetized with Zoletil–xylazine (50 mpk and 10 mpk, i.p.). Next, a 1.5–2-cm longitudinal incision was made on the ventral side of the neck to expose the trachea by blunt dissection, and curved forceps were placed underneath the trachea. A 10–12-cm piece of suture was then threaded underneath the trachea using forceps. The ends of the suture were then pulled cranially to ‘stretch’ the trachea toward the surgeon. A 20-G needle was then used to poke a hole in the trachea as close to the larynx as possible. A 22-G blunt stainless steel needle connected to PE tubing was placed in the hole and inserted approximately 5–8 mm into the trachea. The cannula was secured in the trachea by tying the suture around it with an overhand knot. A 1-ml syringe containing 0.4 ml saline was gently pushed forward and backward three times to recover BALF fluid. BALF was transferred into empty tubes and stored on ice. This process was repeated twice with 0.3 ml saline for a total volume of 1 ml.
Total cell numbers were counted with a standard hemocytometer by mixing 20 μl BALF with 20 μl trypan blue. Cytospins were prepared by cytocentrifugation using Cytospins at 106g for 5 min, and then smears of BALF cells were stained with Diff-Quick stain. Cell differentiation was performed by counting at least 400 cells using standard hemocytologic criteria to classify them as alveolar macrophages or monocytes, neutrophils, eosinophils or lymphocytes. The rest of the BALF fluid was centrifuged, and supernatants were collected and stored at −80 °C for cytokine, chemokine and total protein analysis.
From the collected BALF, concentrations of cytokines were measured from mice in groups 2–7 killed on day 28. Mouse BALF cytokines and chemokines were measured using the ELISA Analysis Kit (Sinobest Bio). Mouse BALF soluble collagen was measured using the Soluble Collagen kit (Biocolor). Mouse lung hydroxyproline content was measured using the Hydroxyproline Assay Kit (Njjcbio).
Left lung lobes were removed from each mouse and fixed in 10% NBF solution, embedded in paraffin and processed to obtain 4-μm sections for staining with H&E. H&E-stained slides were scanned using an Aperio ScanScope Model CS2 (Leica) at ×200 magnification. Images were then opened in the HALO Plus 5 workstation (version 2.3, Indica Labs) program. Using the pen annotation tool, the whole-lung section was selected as an annotation layer. The area of vessels was defined as background using the exclusion drawing tool. The total inflammation area was quantified by selecting the dark blue inflammation cells using the pen annotation tool manually. The percentage of H&E staining (inflammation area/total area of the lung) in the selected annotation was then calculated using the program.
Masson’s trichrome staining was conducted using a ready-to-use kit (Trichrome Stain (Masson) Kit, HT15, Sigma-Aldrich) as described by the manufacturer.
Lung sections were cut at a thickness of 4 μm, dried in an oven for 1 h and stained with M&T using our standard protocol.

[2] = test system: NHDF cells; experiment: Fibronectin and procollagen I in supernatant (ELISA); assay type: cell-based, human; settings: TGF-β 10 ng/ml, 72 h
Procedure: The medium was then replaced with assay medium containing or not containing (control conditions) the test compounds, and TGF-β (10 ng ml^−1) was added or not (unstimulated control). […] Fibronectin and procollagen I contents were measured in the culture supernatants using specific ELISA kits (Takara, MK115 for fibronectin and MK101 for procollagen type I) according to the supplier’s instructions.

[3] = test system: healthy subjects; settings: in vivo
[4] = G2 INS018_055 3mpk BID, 3 mg/kg
[5] = G3 INS018_055 10mpk BID, 10 mg/kg
[6] = G4 INS018_055 30mpk BID, 30 mg/kg

**Q.** For `CC(C)n1cnc(-c2ccc(F)cc2)c1-c1nc(C(=O)Nc2ccc(N3CCN(C)CC3)cc2)c[nH]1` [INS018_055, 2-[4-(4-fluorophenyl)-1-(prop-2-yl)imidazol-5-yl]-N-[4-(4-methylhexahydropyrazin-1-yl)phenyl]-1H-imidazole-4-carboxamide], which “neutrophils, cell count in BALF” value ([1]; 10mpk BID) is on record?
**A.** 500 and 0 and 200 and 700

**Q.** What about the “HE staining (inflammation area)” value ([1]; 30mpk BID) of the same compound?
**A.** 48.7 and 0.62 and 0.2 and 3.2 and 0.42 and 0.24 and 10.41 and 0.95 and 7.2 and 3.59

**Q.** And the “IL-1beta in BALF” value ([1]; 30mpk BID)?
**A.** 205.62 and 188.42 and 203.7 and 211.35 and 200.52 and 228.54 and 189.06 and 180.78 and 190.33 and 224.09

**Q.** What about the “IL-6 in BALF” value ([1]; 30mpk BID) of the same compound?
**A.** 147.17 and 151.39 and 139.93 and 159.83 and 139.33 and 174.91 and 170.69 and 171.9 and 168.28

**Q.** What about the “monocytes, cell count in BALF” value ([1]; 30mpk BID) of the same compound?
**A.** 53400 and 20000 and 196300 and 26700 and 124800 and 27500 and 26500 and 61600 and 54600

**Q.** And the “neutrophils, cell count in BALF” value ([1]; 30mpk BID)?
**A.** 0 and 400 and 1300 and 900

**Q.** What about the “Lung function (Penh)” value [1, 4] of the same compound?
**A.** 0.6758 and 0.6536 and 0.6784 and 0.8035 and 0.7941 and 0.8536 and 2.1862 and 0.7195 and 0.614 and 0.4863 and 3.086 and 0.8355 and 0.9151

**Q.** And the “Masson Trichrome's staining” value [1, 4]?
**A.** 13.42 and 12.85 and 13.06 and 0.67 and 7.67 and 20.55 and 0.21 and 52.81 and 60.17 and 6.1

**Q.** What about the “Modified Ashcroft Score” value [1, 4] of the same compound?
**A.** 4.5 and 1.5 and 6 and 3.25

**Q.** What about the “collagen I” value [1, 4] of the same compound?
**A.** 1.64 and 0.35 and 0.02 and 1.98 and 3.34 and 1.23 and 0.25 and 0.51 and 0.22 and 0.32

**Q.** What about the α-SMA [1, 4] of the same compound?
**A.** 0.37 and 0.33 and 0.09 and 0.57 and 0.58 and 0.29

**Q.** And the “Lung function (Penh)” value [1, 5]?
**A.** 0.921 and 0.5921 and 0.7137 and 3.621 and 0.8031 and 0.5775 and 0.6428 and 0.5842 and 0.678 and 0.5758 and 0.618 and 0.6177 and 0.711

**Q.** What about the “Masson Trichrome's staining” value [1, 5] of the same compound?
**A.** 19.44 and 0.05 and 6.38 and 17.98 and 0.22 and 11.46 and 0.26 and 36.84 and 1 and 0.45

**Q.** And the “Modified Ashcroft Score” value [1, 5]?
**A.** 1.25 and 2.5 and 0.75 and 3 and 4.5 and 0.25

**Q.** What about the “collagen I” value [1, 5] of the same compound?
**A.** 0.04 and 2.29 and 0.08 and 0.17 and 0.07 and 0.11 and 0.36 and 0.22 and 2.99 and 3.49

**Q.** What about the α-SMA [1, 5] of the same compound?
**A.** 0.2 and 0.91 and 0.22 and 0.38 and 0.09 and 0.78 and 0.06 and 0.41 and 2.61

**Q.** And the “Lung function (Penh)” value [1, 6]?
**A.** 0.81 and 0.4773 and 0.7792 and 0.5085 and 0.4976 and 0.9972 and 0.6276 and 0.4738 and 0.7711 and 0.8367 and 0.5642 and 0.8492 and 0.6495

**Q.** What about the “Masson Trichrome's staining” value [1, 6] of the same compound?
**A.** 54.82 and 0.37 and 1.9 and 3.57 and 0.51 and 0.16 and 12.49 and 1.77 and 9.46 and 7.1

**Q.** What about the “Modified Ashcroft Score” value [1, 6] of the same compound?
**A.** 1.5 and 3 and 6

**Q.** What about the “collagen I” value [1, 6] of the same compound?
**A.** 0.43 and 0.13 and 2.32 and 1.69 and 1.28 and 0.07 and 1.12 and 0.03 and 0.15 and 0.02

**Q.** What about the α-SMA [1, 6] of the same compound?
**A.** 0.1 and 0.05 and 0.38 and 0.09 and 0.73 and 0.22 and 0.72 and 0.11 and 0.15 and 0.18

**Q.** What about the IC50 ([2]; read-out: IC50, fibronectin in supernatant) of the same compound?
**A.** ~135 nM

**Q.** And the IC50 ([2]; read-out: IC50, procollagen I in supernatant)?
**A.** ~232 nM

**Q.** And the Abdominal pain [3]?
**A.** 1 (5.6) [1]

**Q.** What about the Alanine aminotransferase increased [3] of the same compound?
**A.** 1 (5.6) [1]

**Q.** And the Alopecia [3]?
**A.** 0 [0]

**Q.** What about the “Any SAE” value [3] of the same compound?
**A.** 0 [0]

**Q.** What about the “Any Severe TEAE” value [3] of the same compound?
**A.** 0 [0]

**Q.** And the “Any Treatment-Related Moderate TEAE” value [3]?
**A.** 0 [0]

**Q.** What about the “Any Treatment-Related SAE” value [3] of the same compound?
**A.** 0 [0]

**Q.** What about the “Any Treatment-Related Severe TEAE” value [3] of the same compound?
**A.** 0 [0]

**Q.** What about the Aphthous ulcer [3] of the same compound?
**A.** 1 (5.6) [1]

**Q.** What about the Aspartate aminotransferase increased [3] of the same compound?
**A.** 1 (5.6) [1]

**Q.** What about the Back pain [3] of the same compound?
**A.** 1 (5.6) [1]

**Q.** What about the “Blood creatine phosphokinase increased” value [3] of the same compound?
**A.** 1 (5.6) [1]

**Q.** What about the Catheter site bruise [3] of the same compound?
**A.** 1 (5.6) [1]

**Q.** What about the Catheter site inflammation [3] of the same compound?
**A.** 1 (5.6) [1]

**Q.** And the Catheter site pain [3]?
**A.** 0 [0]

**Q.** And the Catheter site swelling [3]?
**A.** 1 (5.6) [1]

**Q.** And the Constipation [3]?
**A.** 1 (3.3) [1]

**Q.** What about the Cough [3] of the same compound?
**A.** 1 (3.3) [1]

**Q.** What about the Diarrhoea [3] of the same compound?
**A.** 1 (5.6) [1]

**Q.** What about the Gastrointestinal disorder [3] of the same compound?
**A.** 0 [0]

**Q.** What about the Immune system disorders [3] of the same compound?
**A.** 1 (5.6) [1]

**Q.** What about the Lymph node palpable [3] of the same compound?
**A.** 1 (5.6) [1]

**Q.** And the “Medical device site irritation” value [3]?
**A.** 2 (6.7) [2]

**Q.** What about the Nasal congestion [3] of the same compound?
**A.** 1 (5.6) [1]

**Q.** What about the Nausea [3] of the same compound?
**A.** 1 (5.6) [1]

**Q.** And the Nightmare [3]?
**A.** 1 (5.6) [1]

**Q.** What about the Paraesthesia [3] of the same compound?
**A.** 0 [0]

**Q.** What about the Phlebitis [3] of the same compound?
**A.** 3 (10.0) [3]

**Q.** And the Pruritus [3]?
**A.** 1 (5.6) [1]

**Q.** What about the Psychiatric disorders [3] of the same compound?
**A.** 1 (5.6) [1]

**Q.** What about the Rhinorrhoea [3] of the same compound?
**A.** 0 [0]

**Q.** What about the Seasonal allergy [3] of the same compound?
**A.** 1 (5.6) [1]

**Q.** And the Skin mass [3]?
**A.** 1 (5.6) [1]

**Q.** What about the Syncope [3] of the same compound?
**A.** 1 (3.3) [1]

**Q.** And the Urticaria [3]?
**A.** 0 [0]

**Q.** And the Vascular disorders [3]?
**A.** 3 (10.0) [3]

From publication PMC11738990, “A small-molecule TNIK inhibitor targets fibrosis in preclinical and clinical models” (Nature Biotechnology, 2024)
